Results on ten compounds are retold here after the supplement of paper PMC11061612.

In assay [1] the test system is H9 (T-Cell Non-Hodgkin's Lymphoma). The assay can be described thus: Bliss excess, mean over the matrix (fraction); higher = more synergy. In outline:
(§1)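 Cell lines grown in DMEM/F12 or RPMI with 10% FBS were plated in 1536-well plates and held 24 hours at 37°C, 5% CO2 before 72 hours of exposure to two-drug dose matrices, with DMSO typically at 0.2%. CellTiter-Glo 2.0 luminescence gave viability, which was converted to inhibition. Vehicle wells were set to 0 and blank wells to 1. Combination Emax is the second-highest inhibition in the matrix, and Bliss excess is the observed combination effect minus the expected EA + EB − EA·EB, where EA and EB are the single-agent effects.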

The subject of assay [2] is ST486 (Burkitt's Lymphoma). Described as above. Put shortly: as §1

On to `CN(CCO)CC[C@H](CSc1ccccc1)Nc1ccc(S(=O)(=O)NC(=O)c2ccc(N3CCC([C@@H](O)c4ccccc4-c4ccc(Cl)cc4)CC3)cc2)cc1S(=O)(=O)C(F)(F)F` [AZD4320] + C[C@@H](Nc1cc(F)cc(F)c1)c1cc(C(=O)N(C)C)cc2c(=O)cc(N3CCOCC3)oc12 [AZD8186] (first compound max 1 µM, 7x7, partner max 3 µM), for which the figures for the Bliss excess in assay [1] and in assay [2] were 0.063 and 0.0176, respectively.

In the case of `CC1(C)CCC(CN2CCN(c3ccc(C(=O)NS(=O)(=O)c4ccc(NCC5CCOCC5)c([N+](=O)[O-])c4)c(Oc4cnc5[nH]ccc5c4)c3)CC2)=C(c2ccc(Cl)cc2)C1` [Venetoclax] + C[C@@H](Nc1cc(F)cc(F)c1)c1cc(C(=O)N(C)C)cc2c(=O)cc(N3CCOCC3)oc12 [AZD8186] (first compound max 1 µM, 7x7, partner max 3 µM), the Bliss excess in assay [1] was -0.0159; in assay [2], -0.0686.

On to `COc1cc2c(cc1OCCCCCOc1cc3c(cc1OC)C(=O)N1C=C(C)C[C@H]1C=N3)N=C[C@@H]1CC(C)=CN1C2=O` [SG3199] + O=C(c1cc(Cc2n[nH]c(=O)c3ccccc23)ccc1F)N1CCN(C(=O)C2CC2)CC1 [Olaparib] (first compound max 0.001 µM, 7x7, partner max 10 µM), for which the values for the Bliss excess in assay [1] and in assay [2] were -0.0205 and -0.0258, respectively.

`Cc1cc2ncnn2cc1Nc1ncc2c(n1)n(C1CCOCC1)c(=O)n2C` [AZD7648] + C[C@@H]1COCCN1C2=NC(=NC(=C2)C3(CC3)[S@](=N)(=O)C)C4=C5C=CNC5=NC=C4 [AZD6738] (first compound max 10 µM, 7x7, partner max 10 µM): the Bliss excess is -0.0034 in assay [1] and 0.0077 in assay [2].

Take `CC1(C)CCC(CN2CCN(c3ccc(C(=O)NS(=O)(=O)c4ccc(NCC5CCOCC5)c([N+](=O)[O-])c4)c(Oc4cnc5[nH]ccc5c4)c3)CC2)=C(c2ccc(Cl)cc2)C1` [Venetoclax] + C[C@@H]1COCCN1C2=NC(=NC(=C2)C3(CC3)[S@](=N)(=O)C)C4=C5C=CNC5=NC=C4 [AZD6738] (first compound max 1 µM, 7x7, partner max 10 µM): the Bliss excess is 0.0113 in assay [1] and -0.0369 in assay [2].

Turning to `C=CCn1c(=O)c2cnc(Nc3ccc(N4CCN(C)CC4)cc3)nc2n1-c1cccc(C(C)(C)O)n1` [AZD1775] + C[C@@H]1COCCN1C2=NC(=NC(=C2)C3(CC3)[S@](=N)(=O)C)C4=C5C=CNC5=NC=C4 [AZD6738] (first compound max 1 µM, partner max 10 µM), the Bliss excess in assay [1] was 0.0607; in assay [2], -0.0044.

Consider `Cc1c2c(nn1C)CSCc1cc(n(C)n1)CSc1cc(c3ccccc3c1)OCCCc1c(C(=O)O)n(C)c3c-2c(Cl)ccc13` [AZD5991] + Cn1cnc2c(F)c(Nc3ccc(Br)cc3Cl)c(C(=O)NOCCO)cc21 [Selumetinib] (first compound max 1 µM, 7x7, partner max 3 µM), for which the Bliss excess in assay [1] is 0.0145; in assay [2], 0.07.

As to `COc1cccc(OCCCN)c1-c1cc(Nc2cnc(C#N)cn2)n[nH]1` [Prexasertib] + Cc1cc2ncnn2cc1Nc1ncc2c(n1)n(C1CCOCC1)c(=O)n2C [AZD7648] (first compound max 1 µM, 7x7, partner max 10 µM), the Bliss excess in assay [1] is 0.0256; in assay [2] it was -0.0289.

For `COc1cccc(OCCCN)c1-c1cc(Nc2cnc(C#N)cn2)n[nH]1` [Prexasertib] + C[C@@H]1COCCN1C2=NC(=NC(=C2)C3(CC3)[S@](=N)(=O)C)C4=C5C=CNC5=NC=C4 [AZD6738] (first compound max 1 µM, 7x7, partner max 10 µM), the Bliss excess is -0.0023 in assay [1] and -0.0336 in assay [2].

In the case of `Cc1cc2ncnn2cc1Nc1ncc2c(n1)n(C1CCOCC1)c(=O)n2C` [AZD7648] + CN(C)CCCOc1ccc(-c2ccc3ncc4c(c3c2)n(C2CCOCC2)c(=O)n4C)cn1 [AZD0156] (first compound max 10 µM, 7x7, partner max 1 µM), the Bliss excess in assay [1] was 0.0458; in assay [2], -0.0071.
